# According to patent EP0354042A2, “Aminobenzoic-acid derivatives to reduce side effects induced by an administration of immuno-suppressant” (priority 1988, dated 1990):
# Columns and labels:
# Jcl:ICR mice = assay: Acute toxicity (LD50, Litchfield-Wilcoxon); format: in vivo; conditions: observed 7 days; for LD₅₀ Value Intraperitoneal: in physiological saline solution; for LD₅₀ Value Oral: oral by stomach sonde, in distilled water
# Experimental: The acute toxicity was studied with Jcl:ICR mice through intraperitoneal route and oral route. For intraperitoneal route, the present substance was dissolved in a physiological saline solution and a predetermined dose of the substance was administered with an injector to the cavity. For oral route, the present substance was dissolved in a distilled water and administered forcibly through a stomach sonde.
# After the administration, observation of toxicopathic symptoms of the mice were continued for 7 days and based on time to time death rates of the mice, LD₅₀ values were calculated. Both surviving and dead mice were anatomized and observed certain organs.
# Bacillus subtilis M45 = assay: Mutagenicity Rec-assay, recombination repair deficient strain; conditions: for Growth Inhibited Area M45: 16 hours at 37°C; for Growth Inhibited Area M45 - H17: difference between strains
# Experimental: (§1) First, mutagenecity was studied with Rec-assay. […] The present substance was dissolved with sterlized water, 0.05 ml of the solution was absorbed by a round filter paper having a diameter of 8 mm and immediately the filter paper was laid on the medium (B-II agar) in a manner to cover each of the satrt point of the streak. Then, the mdium was cultured for 16 hours at a temperature of 37°C and measured growth inhibited area. Kanamycin was used as a negative control and mitomycin as a positive control.
# Bacillus subtilis H17 = assay: Mutagenicity Rec-assay, recombination repair proficient strain; conditions: 16 hours at 37°C
# Experimental: as §1
# [1] = test system: TA100 of Salmonella typhimurium; assay: Reversion assay (reversion colony test) TA100; format: cell-based; conditions: 5,000 µg/disk, 37°C for 2 days; Drug-free Control 149
# Experimental: (§2) In addition, a reversion assay was performed using TA98 and TA100 of Salmonella typhimurium (both are histidine-requiring bacteria).
# (§3) 10% by volume of 0.5 mM bithion solution containing 0.5 mM histidine was added to a soft agar solution (prepared with 6g of NaCl, 6g of agar and 1,000 ml of distilled water). Then, 0.1 ml of a solution containing 1 x 10⁸ of the bacteria and 0.1 ml of a solution of the present substance were added to 2 ml of the soft agar solution, mixed well and obtained soft agar solution was multilayered on a minimal agar medium. The medium layered was cultured at 37°C for 2 days and number of reversion colonies was counted. Furylfuramide (AF2) was used as a positive control.
# [2] = test system: TA98 of Salmonella typhimurium; assay: Reversion assay (reversion colony test) TA98; format: cell-based; conditions: 5,000 µg/disk, 37°C for 2 days; Drug-free Control 13
# Experimental: as §2, §3
# [3] = Body weight of rats given CsA with the present substance; format: in vivo, Wistar male rats; conditions: at completion of the test; CsA 25 mg/kg/day i.p. 3 weeks plus present substance 300 mg/kg/day orally
# Experimental: (§4) Various clearance tests and a saccharide tolerance test were performed after completion of the administrations. Then, after sacrificing the rats, their blood was taken for serum biochemical and general blood tests.
# Wistar male rats [4] = assay: Kidney function (inulin clearance, serum creatinine) of rats given CsA with the present substance; format: in vivo; conditions: CsA 25 mg/kg/day i.p. 3 weeks plus present substance 300 mg/kg/day orally
# Experimental: as §4
# Wistar male rats [5] = assay: Saccharide tolerance test (pancreas function) of rats given CsA with the present substance; format: in vivo; conditions: CsA 25 mg/kg/day i.p. 3 weeks plus present substance 300 mg/kg/day orally
# Experimental: as §4
# Wistar male rats [6] = assay: Serum biochemical test, total bilirubin (liver function) of rats given CsA with the present substance; format: in vivo; conditions: CsA 25 mg/kg/day i.p. 3 weeks plus present substance 300 mg/kg/day orally
# Experimental: as §4
# human lymphocyte = assay: Mixed lymphocyte culture, 3H-thymidine uptake (proliferation of lymphocytes); format: cell-based; conditions: CsA 0.1 µg/ml plus present substance 100 µg/ml, cultured 6 days;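 note: percent suppression of proliferation derived from uptake with CsA alone versus CsA plus substance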
# Experimental: A mixture of 50 µl of human lymphocyte (1.6 x 10⁶/ml) with 50 µl of the lymphocytes treated with mitomycin C (MMC) (1.7 x 10⁶/ml) was cultured for 6 days and an uptake of ³H-thymidine, an index of proliferation of lymphocyte, was studied. The medium used for culture comprised bovine fetal serum (10% in quantity) and RPMI 1640 (90% in quantity). […] From the calculated ratio, the effects of the present substance on immuno function were studied.
Compound,LD₅₀ Value Intraperitoneal (Jcl:ICR mice),LD₅₀ Value Oral (Jcl:ICR mice),Growth Inhibited Area M45 (Bacillus subtilis M45; 500 µg/disk),Growth Inhibited Area M45 - H17 (Bacillus subtilis M45; 500 µg/disk),"Growth Inhibited Area M45 (Bacillus subtilis M45; 5,000 µg/disk)","Growth Inhibited Area M45 - H17 (Bacillus subtilis M45; 5,000 µg/disk)",Growth Inhibited Area H17 (Bacillus subtilis H17; 500 µg/disk),"Growth Inhibited Area H17 (Bacillus subtilis H17; 5,000 µg/disk)",No. of Reversion Colony TA100 [1],No. of Reversion Colony TA98 [2],Body Weight [3],Kidney Function Inulin Clearance (Wistar male rats [4]),Kidney Function Serum Creatinine (Wistar male rats [4]),Blood sugar value measured 10 minutes after the test (Wistar male rats [5]),Insuline Value 10 Min.After The Test (Wistar male rats [5]),Insuline Value Before The Test (Wistar male rats [5]),TBI (seerum total bilirubin value) (Wistar male rats [6]),Depressing Ratio (human lymphocyte)
"CC1OC(Nc2ccccc2C(=O)[O-])C(O)C(O)C1O.[Na+] [Compound 20, o-Aminobenzoic acid-N-L-rhamnoside]",> 15000 mg/kg,12500 mg/kg,0 mm,0 mm,6 mm,4 mm,0 mm,2 mm,61 n/plate,9 n/plate,233 g,1.95 mL/min,0.64 mg/dL,576 mg/dL,6.38 mµ/ml,4.34 mµ/ml,0.31 mg/dL,26%
"O=C(O)c1ccccc1NC1OC[C@@H](O)[C@H](O)[C@H]1O (stereo partly drawn) [Compound 8, o-Aminobenzoic acid-N-D-xyloside]",9270 mg/kg,6350 mg/kg,0 mm,0 mm,7 mm,4 mm,0 mm,3 mm,166 n/plate,4 n/plate,211 g,1.72 mL/min,0.65 mg/dL,605 mg/dL,6.18 mµ/ml,4.21 mµ/ml,0.38 mg/dL,27%
"O=C([O-])c1ccccc1NC1O[C@H](CO)[C@@H](O)[C@H](O)[C@H]1O.[Na+] (stereo partly drawn) [Compound 12, o-Aminobenzoic acid-N-D-glucoside]",13380 mg/kg,8960 mg/kg,0 mm,0 mm,5 mm,3 mm,0 mm,2 mm,151 n/plate,5 n/plate,232 g,1.88 mL/min,0.64 mg/dL,589 mg/dL,6.12 mµ/ml,4.11 mµ/ml,0.36 mg/dL,27%
"O=C([O-])c1ccccc1NC1O[C@H](CO)[C@H](O)[C@H](O)[C@H]1O.[Na+] (stereo partly drawn) [Compound 16, o-Aminobenzoic acid-N-D-galactoside]",7420 mg/kg,6100 mg/kg,0 mm,0 mm,6 mm,5 mm,0 mm,1 mm,151 n/plate,6 n/plate,210 g,1.81 mL/min,0.65 mg/dL,587 mg/dL,6.16 mµ/ml,4.22 mµ/ml,0.34 mg/dL,26%
